In brackets after ≈: the same amount, converted by molar mass.
Columns and labels:
Staphylococcus aureus [1] = test: Antibacterial activity against Staphylococcus aureus ATCC 25923 after 24 hrs by broth dilution assay; type: functional; conditions: ATCC 25923, 24 h
Staphylococcus aureus [2] = test: Antibacterial activity against methicillin-resistant Staphylococcus aureus ATCC 43300 after 24 hrs by broth dilution assay; type: functional; conditions: ATCC 43300, 24 h

## CC1(C)S[C@@H]2[C@H](NC(=O)Cc3ccccc3)C(=O)N2[C@H]1C(=O)O [PENICILLIN G]
Staphylococcus aureus [1]
  MIC: 0.012 µg/mL (≈ 0.0359 µM)
Staphylococcus aureus [2]
  MIC: 16 µg/mL (≈ 47.8 µM)

Reference: ChEMBL document CHEMBL1139929, “Penicillin-bound polyacrylate nanoparticles: restoring the activity of beta-lactam antibiotics against MRSA” (2007)
